Broadly, the IC50 is the concentration that inhibits the measured activity by half.

For this assay, the target named is T1, full length active recombinant SYK enzyme (Homo sapiens, UniProt P43405).
T1 construct: full length active recombinant SYK enzyme (Millipore, Calif.); purchased Millipore
The assay can be described thus: Inhibition of Syk tyrosine phosphorylation activity (LANCE TR-FRET kinase assay). It is filed as biochemical. Conditions: activity in the Syk assays, class symbols. The method in brief:
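IC50 was derived by non-linear regression of TR-FRET signal (Eu-W1024-PY100 donor, streptavidin-APC acceptor) read 1 h after EDTA quench. The kinase step ran 1 h at room temperature with 1 nM full-length SYK, 550 nM biotinylated DEEDYESP substrate and 100 μM ATP in Tris pH 7.5/MgCl2/DTT at 3% final DMSO.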
In general terms: TR-FRET usually uses a lanthanide donor and a delayed reading to cut background.
For `CC(C)[C@@H](Nc1cnc(C(N)=O)c(Nc2cccc(-n3nccn3)c2)n1)C(N)=O` [Example 65, (R)-3-(3-(2H-1,2,3-triazol-2-yl)phenylamino)-5-(1-amino-3-methyl-1-oxobutan-2-ylamino)pyrazine-2-carboxamide], the IC50 is 10 to 100 nM.

Regarding `COc1ccc(Nc2nc(N[C@@H]3CCCC[C@@H]3N)cnc2C(N)=O)cc1C(=O)N(C)C` [Example 286, 5-((1R,2S)-2-aminocyclohexylamino)-3-(3-(dimethylcarbamoyl)-4-methoxyphenylamino)pyrazine-2-carboxamide], the IC50 was 100 to 1000 nM.

Regarding `Cc1ccc(Nc2nc(N[C@@H](C(N)=O)C(C)C)cnc2C(N)=O)cc1C` [Example 162, (R)-5-(1-amino-3-methyl-1-oxobutan-2-ylamino)-3-(3,4-dimethylphenylamino)pyrazine-2-carboxamide], the IC50 fell in the range of 10 to 100 nM.

On to `CC(C)C[C@@H](Nc1cnc(C(N)=O)c(Nc2ccc(N(C)C)nc2)n1)C(N)=O` [Example 313, (R)-5-(1-amino-4-methyl-1-oxopentan-2-ylamino)-3-(6-(dimethylamino)pyridin-3-ylamino)pyrazine-2-carboxamide], for which the IC50 was in the range of 10 to 100 nM.

With `CC(C)[C@@H](Nc1cnc(C(N)=O)c(Nc2ccc3cnccc3c2)n1)C(N)=O` [Example 189, (R)-5-(1-amino-3-methyl-1-oxobutan-2-ylamino)-3-(isoquinolin-6-ylamino)pyrazine-2-carboxamide], the IC50 lay in the range of 1 to 10 nM.

As to `NC(=O)c1ncc(N[C@@H](C(N)=O)c2ccccc2)nc1Nc1cnc2cccnc2c1` [Example 411, (R)-3-(1,5-naphthyridin-3-ylamino)-5-(2-amino-2-oxo-1-phenylethylamino)pyrazine-2-carboxamide], the IC50 lay within 10 to 100 nM.

For `Cc1ccc(Nc2nc(N[C@H](CC3CC3)C(N)=O)cnc2C(N)=O)cc1C` [Example 172, (R)-5-(1-amino-3-cyclopropyl-1-oxopropan-2-ylamino)-3-(3,4-dimethylphenylamino)pyrazine-2-carboxamide], the IC50 lay within 1 to 10 nM.

With `CC[C@@H](Nc1cnc(C(N)=O)c(Nc2ccc3nccnc3c2)n1)C(N)=O` [Example 369, (R)-5-(1-amino-1-oxobutan-2-ylamino)-3-(quinoxalin-6-ylamino)pyrazine-2-carboxamide], the IC50 was in the range of 1 to 10 nM.

For `CC[C@@H](Nc1cnc(C(N)=O)c(Nc2snc(C)c2Br)n1)C(N)=O` [Example 132, (R)-5-((1-amino-1-oxobutan-2-yl)amino)-3-((4-bromo-3-methylisothiazol-5-yl)amino)pyrazine-2-carboxamide], the IC50 was in the range of 10 to 100 nM.

For `CC[C@@H](Nc1cnc(C(N)=O)c(Nc2cccnc2)n1)C(N)=O` [Example 181, (R)-5-(1-amino-1-oxobutan-2-ylamino)-3-(pyridin-3-ylamino)pyrazine-2-carboxamide], the IC50 was 10 to 100 nM.

On to `NC(=O)c1ncc(N[C@@H]2CCCC(F)(F)[C@@H]2N)nc1Nc1ccc2nccnc2c1` [Example 365, 5-((1R,2R)-2-amino-3,3-difluorocyclohexylamino)-3-(quinoxalin-6-ylamino)pyrazine-2-carboxamide], for which the IC50 lay in the range of 10 to 100 nM.

`NC(=O)c1ncc(N[C@H]2CC[C@@H](N)CC2)nc1Nc1ccc2ncccc2c1` [Example 187, 5-((1s,4s)-4-aminocyclohexylamino)-3-(quinolin-6-ylamino)pyrazine-2-carboxamide]: the IC50 was 1 to 10 nM.

Regarding `Cc1cccc(Nc2nc(N[C@@H]3CCCC(F)(F)[C@@H]3N)cnc2C(N)=O)c1` [Example 103, 5-((1R,2R)-2-amino-3,3-difluorocyclohexylamino)-3-(m-tolylamino)pyrazine-2-carboxamide], the IC50 was 10 to 100 nM.

On to `NC(=O)c1ncc(N[C@H](CC2CC2)C(N)=O)nc1Nc1csc2ncccc12` [Example 9, (R)-5-(1-amino-3-cyclopropyl-1-oxopropan-2-ylamino)-3-(thieno[2,3-b]pyridin-3-ylamino)pyrazine-2-carboxamide], for which the IC50 is 1 to 10 nM.

Regarding `CC(C)(C)[C@@H](Nc1cnc(C(N)=O)c(Nc2cnc3cccnc3c2)n1)C(N)=O` [Example 237, (R)-3-(1,5-naphthyridin-3-ylamino)-5-(1-amino-3,3-dimethyl-1-oxobutan-2-ylamino)pyrazine-2-carboxamide], the IC50 fell in the range of 10 to 100 nM.

Turning to `Cc1cncc(Nc2nc(N[C@H](CC(C)C)C(N)=O)cnc2C(N)=O)c1` [Example 83, (R)-5-(1-amino-4-methyl-1-oxopentan-2-ylamino)-3-(5-methylpyridin-3-ylamino)pyrazine-2-carboxamide], the IC50 fell in the range of 1 to 10 nM.

For the compound `CN(CC(F)(F)F)C(=O)c1ccc(Nc2nc(N[C@@H]3CCCC[C@@H]3N)cnc2C(N)=O)cc1` [Example 298, 5-((1R,2S)-2-aminocyclohexylamino)-3-(4-(methyl(2,2,2-trifluoroethyl)carbamoyl)phenylamino)pyrazine-2-carboxamide], the IC50 lay in the range of 10 to 100 nM.

As to `CC(C)C[C@@H](Nc1cnc(C(N)=O)c(Nc2ccc(C(=O)N3CCC3)cc2)n1)C(N)=O` [Example 293, (R)-5-(1-amino-4-methyl-1-oxopentan-2-ylamino)-3-(4-(azetidine-1-carbonyl)phenylamino)pyrazine-2-carboxamide], the IC50 lay within 1 to 10 nM.

Take `CC[C@@H](Nc1cnc(C(N)=O)c(Nc2cnc3cc(F)ccc3c2)n1)C(N)=O` [Example 233, (R)-5-(1-amino-1-oxobutan-2-ylamino)-3-(7-fluoroquinolin-3-ylamino)pyrazine-2-carboxamide]: the IC50 is 1 to 10 nM.

For the compound `CC(C)C[C@@H](Nc1cnc(C(N)=O)c(Nc2cccc(C(=O)N(C)C)c2)n1)C(N)=O` [Example 292, (R)-5-(1-amino-4-methyl-1-oxopentan-2-ylamino)-3-(3-(dimethylcarbamoyl)phenylamino)pyrazine-2-carboxamide], the IC50 lay in the range of 100 to 1000 nM.

In the case of `CCc1ccc(Nc2nc(N[C@H](CC)C(N)=O)cnc2C(N)=O)cn1` [Example 340, (R)-5-(1-amino-1-oxobutan-2-ylamino)-3-(6-ethylpyridin-3-ylamino)pyrazine-2-carboxamide], the IC50 is 10 to 100 nM.

Take `N#Cc1ccc(Nc2nc(N[C@@H]3CCCC[C@@H]3N)cnc2C(N)=O)cn1` [Example 338, 5-((1R,2S)-2-aminocyclohexylamino)-3-(6-cyanopyridin-3-ylamino)pyrazine-2-carboxamide]: the IC50 lay in the range of 10 to 100 nM.

Regarding `COc1ccc(Nc2nc(N[C@H](CC(C)C)C(N)=O)cnc2C(N)=O)cn1` [Example 312, (R)-5-(1-amino-4-methyl-1-oxopentan-2-ylamino)-3-(6-methoxypyridin-3-ylamino)pyrazine-2-carboxamide], the IC50 fell in the range of 1 to 10 nM.

In the case of `Cc1ccc(Nc2nc(N[C@@H]3CCOC[C@@H]3N)cnc2C(N)=O)cc1` [Example 78, 5-((3R,4R)-3-aminotetrahydro-2H-pyran-4-ylamino)-3-(p-tolylamino)pyrazine-2-carboxamide], the concentration for half-maximal inhibition (IC50) was in the range of 1 to 10 nM.

Consider `CC(C)[C@@H](Nc1cnc(C(N)=O)c(Nc2cccc(OC(F)(F)F)c2)n1)C(N)=O` [Example 147, (R)-5-(1-amino-3-methyl-1-oxobutan-2-ylamino)-3-(3-(trifluoromethoxy)phenylamino)pyrazine-2-carboxamide], for which the IC50 fell in the range of 100 to 1000 nM.

With `NC(=O)c1ncc(N[C@@H]2CCCC[C@@H]2N)nc1Nc1cnc2ccncc2c1` [Example 433, 3-((1,6-naphthyridin-3-yl)amino)-5-(((1R,2S)-2-aminocyclohexyl)amino)pyrazine-2-carboxamide], the IC50 lay in the range of 1 to 10 nM.

For `CC[C@@H](Nc1cnc(C(N)=O)c(Nc2cnc3ccncc3c2)n1)C(N)=O` [Example 381, (R)-3-(1,6-naphthyridin-3-ylamino)-5-(1-amino-1-oxobutan-2-ylamino)pyrazine-2-carboxamide], the IC50 fell in the range of 1 to 10 nM.

For `NC(=O)c1ncc(N[C@@H]2CCNC2)nc1Nc1ccc2ncccc2c1` [Example 56, (R)-5-(pyrrolidin-3-ylamino)-3-(quinolin-6-ylamino)pyrazine-2-carboxamide], the IC50 lay in the range of 1 to 10 nM.

`NC(=O)c1ncc(N[C@@H]2CCNC2)nc1Nc1cnc2ccccc2c1` [Example 55, (R)-5-(pyrrolidin-3-ylamino)-3-(quinolin-3-ylamino)pyrazine-2-carboxamide]: the IC50 is 1 to 10 nM.

As to `COc1ccc(Nc2nc(N[C@@H]3CCCC[C@@H]3N)cnc2C(N)=O)cc1OC` [Example 142, 5-((1R,2S)-2-aminocyclohexylamino)-3-(3,4-dimethoxyphenylamino)pyrazine-2-carboxamide], the IC50 is 1 to 10 nM.

As to `NC(=O)c1ncc(N[C@@H]2CCCC[C@@H]2N)nc1Nc1cnc2c(F)cccc2c1` [Example 202, 5-((1R,2S)-2-aminocyclohexylamino)-3-(8-fluoroquinolin-3-ylamino)pyrazine-2-carboxamide], the IC50 lay in the range of 1 to 10 nM.

`COc1cc(Nc2nc(N[C@H]3CCCC[C@@H]3N)cnc2C(N)=O)cc(OC)c1` [Example 93, 5-(((1S,2S)-2-aminocyclohexyl)amino)-3-((3,5-dimethoxyphenyl)amino)pyrazine-2-carboxamide]: the IC50 was 1 to 10 nM.

For the compound `CC[C@@H](Nc1cnc(C(N)=O)c(Nc2ccc(-c3ccncc3)cc2)n1)C(N)=O` [Example 28, (R)-5-(1-amino-1-oxobutan-2-ylamino)-3-(4-(pyridin-4-yl)phenylamino)pyrazine-2-carboxamide], the IC50 is 1 to 10 nM.

Regarding `CC[C@@H](Nc1cnc(C(N)=O)c(Nc2ccc(C(=O)N3CC(F)(F)C3)nc2)n1)C(N)=O` [Example 301, (R)-5-(1-amino-1-oxobutan-2-ylamino)-3-(6-(3,3-difluoroazetidine-1-carbonyl)pyridin-3-ylamino)pyrazine-2-carboxamide], the IC50 was 10 to 100 nM.

With `CC[C@@H](Nc1cnc(C(N)=O)c(Nc2cccc(-c3ncco3)c2)n1)C(N)=O` [Example 450, (R)-5-((1-amino-1-oxobutan-2-yl)amino)-3-((3-(oxazol-2-yl)phenyl)amino)pyrazine-2-carboxamide], the half-maximal inhibitory concentration (IC50) is 10 to 100 nM.

The record behind these values is patent US9359308B2, “Pyrazine kinase inhibitors” (Portola Pharmaceuticals, Inc., priority 2011, dated 2016).
